Measured values reported in US20100221773A1, “Nucleic Acids Encoding a Functional Mammalin Purinoreceptor, P2X3, Methods of Production and Use Thereof” (priority 2005, published 2010).

How the values were obtained:
rhesus P2X3 receptor [1] = target: T1, rhesus P2X3 receptor (Macaca mulatta, UniProt A0A1D5QSM7); assay: In vitro electrophysiological assay (whole-cell patch clamp, PatchXpress); type: cell-based; conditions: for IC50: 100 μM CTP, antagonist preincubation 2 min, whole-cell patch clamp, read-out: IC50, inhibition of CTP-induced currents
Description: (§1) Generation of a Rhesus P2X3 Stable Cell Line—Rhesus P2X3 receptor cDNA was subcloned as a 5′HindIII and 3′XhoI fragment into the expression vector pcDNA5/FRT/TO (Invitrogen). Five micrograms of the rhesus P2X3 expression construct was transfected using Lipofectamine 2000 (Invitrogen) into Flp-in T-Rex—293 cells (Invitrogen) according to the manufacturer's directions. Cells positive for flp-mediated recombination of rhesus P2X3 were selected using 300 μg/ml hygromycin. The stable rhesus P2X3 cell line was propagated in DMEM, 10% FBS, 150 μg/ml hygromycin, 15 μg/ml blasticidin, and 100 units/ml penicillin and 100 μg/ml streptomycin, and maintained at 37° and 95% humidity. Cells were subcultured by treatment with 0.25% trypsin with 0.1% EDTA in HBSS.
In vitro Electrophysiological Assay—Cells expressing rhesus P2X3 receptor were grown to a confluence of 65-85% and induced with 1 μg/ml doxycycline 20 to 32 hours prior to assay. After induction the cells were dissociated with trypsin, centrifuged, and resuspended in bath solution at a cell density of 6×10^6 cells/ml and loaded onto PatchXpress. The bath solution contained 150 mM NaCl, 4 mM KCl, 2 mM CaCl2, 1.2 mM MgCl2, 10 mM HEPES, and 11.1 mM glucose, at pH 7.2. The intracellular solution contained 140 mM K-aspartate, 20 mM NaCl, 5 mM HEPES, 10 mM EGTA, at pH 7.2. Agonist stock solutions were prepared in H2O and diluted in bath solution prior to use. All antagonists were prepared as 10 mM stock solutions in DMSO and diluted in bath solution prior to use. All experiments were performed on cells under the whole-cell patch clamp configuration at room temperature. Up to 16 individual cells could be patch clamped simultaneously on the PatchXpress instrument. A baseline response was established by repeated CTP (100 μM; for 2 sec.) followed by antagonist incubation for 2 min. in the absence of CTP. After antagonist preincubation 100 μM CTP and antagonist were co-administered to determine the inhibitory effect of the antagonist. These steps were then repeated on the same cell with a range of concentrations of the antagonist. A maximum of five concentrations of antagonist were tested on any individual cell. The control P2X3 current amplitude (IP2X3-(control)) was taken as an average of the peak current amplitude from the last two agonist additions prior to incubation with an antagonist. The peak P2X3 current amplitude in the presence of an antagonist (IP2X3-(drug)) was used to calculate the inhibitory effect at each concentration of the antagonist according to the following equation:
% inhibition of P2X3=100*(IP2X3-(control)−IP2X3-(drug))/IP2X3-(control)
Each concentration of an antagonist was tested on at least three independent cells. […]

rhesus P2X3 receptor [2] = target: T1, rhesus P2X3 receptor; assay: Intracellular calcium measurement (FLIPR, Fluo-3) to assess antagonist affinity; type: cell-based; conditions: for IC50: FLIPR, Flp-in T-Rex-293 cells stably expressing rhesus P2X3, antagonist 10 min before agonist αβ-meATP, read-out: IC50, block of αβ-meATP mediated increase in intracellular calcium
Description: as §1
Intracellular Calcium Measurement to Assess Antagonist Affinity—A fluorescent imaging plate reader (FLIPR; Molecular Devices) was used to monitor intracellular calcium levels using the calcium-chelating dye Fluo-3 (Molecular Probes). Cells expressing the rhesus P2X3 receptor were plated in the presence of 0.5 to 1 μg/ml doxycycline at a density of 30,000 cells/well in 384-well black-walled plates approximately 20 hours before beginning the assay. Cells were washed with HBSS and dye-loaded in HBSS, 2 mM CaCl2, 0.1% BSA, 0.25 mM probenecid, and 4 μM Fluo-3 for 60 min in the dark at room temperature. Prior to compound additions cells were washed with HBSS. Antagonist affinity was determined by the ability of these compounds to inhibit increases of intracellular calcium elicited by the P2X3 agonist αβ-meATP. Ten minutes prior to adding agonist, the antagonist was added and allowed to incubate at room temperature. Following agonist addition fluorescence data was collected at 5 sec intervals and analyzed based on the increase in peak relative fluorescence units (RFU) compared to the basal fluorescence. Antagonist dose-response data expressed as a response ratio (max RFU/min RFU) were analyzed using GraphPad Prism.

In the case of `Cc1nc(N=Nc2ccc(S(=O)(=O)O)cc2S(=O)(=O)O)c(COP(=O)(O)O)c(C=O)c1O` [PPADS, pyridoxal-phoshpate-6-azophenyl-2′,4′-disulfonic acid], the IC50 (rhesus P2X3 receptor [1]; FIG. 3) is reported as 2200 nM, the “rhesus P2X3 inward current elicited by CTP in the presence of antagonist” value (rhesus P2X3 receptor [1]; FIG. 3A, 3 μM PPADS, 100 mM CTP (control) as printed) is reported as “diminished” and the “blockade of αβ-meATP activated Ca2+ influx” value (rhesus P2X3 receptor [2]; FIG. 1, cells incubated with PPADS for 10 min prior to agonist, FLIPR traces) is reported as “dose-dependent blockade”. For the same compound, the IC50 (rhesus P2X3 receptor [2]) was 2900 nM.

In the case of `Cc1ccc(C(=O)Nc2ccc(S(=O)(=O)O)c3cc(S(=O)(=O)O)cc(S(=O)(=O)O)c23)cc1NC(=O)c1cccc(NC(=O)Nc2cccc(C(=O)Nc3cc(C(=O)Nc4ccc(S(=O)(=O)O)c5cc(S(=O)(=O)O)cc(S(=O)(=O)O)c45)ccc3C)c2)c1` [suramin], the IC50 (rhesus P2X3 receptor [1]) is reported as 382 nM and the IC50 (rhesus P2X3 receptor [2]) is reported as 1500 nM.

`Nc1ncnc2c1ncn2[C@@H]1O[C@H](COP(=O)(O)CP(=O)(O)OP(=O)(O)O)[C@@H](O)[C@H]1O` [αβ-meATP] showed an EC50 (rhesus P2X3 receptor [1]; patch-clamp, rhesus P2X3 stable cell line, FIG. 2, read-out: EC50, inward current evoked by agonist) of 1000 nM.
